Assay results reported in patent US10519111B2, “UV absorbing compounds, compositions comprising same and uses thereof” (CORAL SUNSCREEN PTY LTD, priority 2013, dated 2019).

Experiments:
[1] = Critical wavelength (λcrit), approximate in-house measurement; type: physicochemical
Text: As the precise test for critical wavelength was unable to be replicated exactly by the inventors due to the need for specialist equipment and a specific calibration of the spectrophotometer, these values are only approximate to a degree. […] This represents a highly useful result and so, compounds based around this benzoyl substitution pattern shown, are especially preferred.

[2] = UV absorption properties (λmax, molar extinction coefficient ε, efficiency E 1%, 1 cm); type: physicochemical; conditions: for ε: in M-1 cm-1
[3] = Table 13B, miscellaneous compounds
[4] = Table 13B, values in order of the λmax values
[5] = Table 3, compounds from isocyanates or isothiocyanates

Row | SMILES | λcrit ([1]; Table 13B) [nm] | λmax [2, 3] [nm] | E (1%, 1 cm) [2, 4] | ε [2, 4] | λcrit ([1]; Table 3) [nm] | Ε (1%, 1 cm) ([2]; Table 3) | λmax [2, 5] [nm] | ε ([2]; Table 3)
1 | C=CC(=O)C1=CN(c2ccc(C)cc2)CCC1(C)C | 377 | 348 | 1045 | 26657 |  |  |  | 
2 | CCCCNc1ccc(C(=O)C2=CN(C(C)(C)C)CCC2(C)C)cc1 | 360 | 316 | 626 | 21545 |  |  |  | 
3 | CCCCCCC(=O)C1=CN(c2ccc(N3C=C(C(=O)CCCCCC)C(C)(C)CC3)cc2)CCC1(C)C | 378 | 359 |  |  |  |  |  | 
4 | CCOC(=O)c1cc(/C=C/C(=O)C2=CN(C(C)(C)C)CCC2(C)C)c(C(=O)OCC)cc1/C=C/C(=O)C1=CN(C(C)(C)C)CCC1(C)C | 388 | 383 | 355 | 23457 |  |  |  | 
5 | COc1cc(/C=C/C(=O)C2=CN(C(C)(C)C)CCC2(C)C)c(OC)cc1/C=C/C(=O)C1=CN(C(C)(C)C)CCC1(C)C | 391 | 402 | 559 | 32220 |  |  |  | 
6 | CC1(C)CCN(C(C)(C)C)C=C1C(=O)/C=C/c1ccc(/C=C/C(=O)C2=CN(C(C)(C)C)CCC2(C)C)c([N+](=O)[O-])c1 | 388 | 391 | 369 | 24359 |  |  |  | 
7 | CC1(C)CCN(C(C)(C)C)C=C1C(=O)c1ccc(N2CCN(c3ccc(C(=O)C4=CN(C(C)(C)C)CCC4(C)C)cc3)CC2)cc1 | 356 | 323 | 830 | 51851 |  |  |  | 
8 | CCCCC(CC)CNc1ccc(C(=O)C2=CN(C(C)(C)C)CCC2(C)C)cc1 (centres unmarked) | 362 | 318 | 551 | 21936 |  |  |  | 
9 | CCC(=O)C1=CN(c2ccc(N3C=C(C(=O)CC)C(C)(C)CC3)cc2)CCC1(C)C | 377 | 357 | 1290 | 52638 |  |  |  | 
10 | CCCCCCCCCC(=O)C1=CN(c2ccc(N3C=C(C(=O)CCCCCCCCC)C(C)(C)CC3)cc2)CCC1(C)C | 378 | 359 | 898 | 54278 |  |  |  | 
11 | CCCCCCCCCCCCCCCCCC(=O)C1=CN(c2ccc(N3C=C(C(=O)CCCCCCCCCCCCCCCCC)C(C)(C)CC3)cc2)CCC1(C)C | 379 | 359 | 447 | 37068 |  |  |  | 
12 | CCCOC(=O)CCC(=O)C1=CN(c2ccc(N3C=C(C(=O)CCC(=O)OCCC)C(C)(C)CC3)cc2)CCC1(C)C | 377 | 358 | 820 | 47560 |  |  |  | 
13 | CC1(C)CCN(c2ccc(N3C=C(C(=O)CC4CCCCC4)C(C)(C)CC3)cc2)C=C1C(=O)CC1CCCCC1 | 379 | 360 | 1030 | 56032 |  |  |  | 
14 | CCCCCCC(=O)C1=CN(c2ccc(N3C=C(C(=O)CC(C)CCC=C(C)C)C(C)(C)CC3)cc2)CCC1(C)C (centres unmarked) | 378 | 358 | 934 | 52353 |  |  |  | 
15 | CC(C)(C)CC(C)(C)N1C=C(C(=O)/C=C/c2ccc(/C=C/C(=O)C3=CN(C(C)(C)CC(C)(C)C)CCC3(C)C)cc2)C(C)(C)CC1 | 390 | 386 | 486 | 31937 |  |  |  | 
16 | CC(C)(C)CC(C)(C)N1C=C(C(=O)/C=C/c2ccc(Br)cc2)C(C)(C)CC1 | 386 | 360 | 437 | 18987 |  |  |  | 
17 | CC(C)(C)CC(C)(C)N1C=C(C(=O)/C=C/c2ccc(/C=C/C(=O)Cl)cc2)C(C)(C)CC1 | 385 | 374 | 434 | 19194 |  |  |  | 
18 | CC1(C)CCN(C(C)(C)C)C=C1C(=O)Nc1ccccc1 [drawing 57] |  |  |  |  | 326 | 1217 | 308 | 34834
19 | CN(C(=O)C1=CN(C(C)(C)C)CCC1(C)C)c1ccccc1 [drawing 58] |  |  |  |  | 337 | 506 | 312 | 15174
20 | CC1(C)CCN(C(C)(C)C)C=C1C(=O)NCCCCCCNC(=O)C1=CN(C(C)(C)C)CCC1(C)C [drawing 59] |  |  |  |  | 314 | 619 | 289 | 31072
21 | CC1(C)CCN(C(C)(C)C)C=C1C(=S)Nc1ccccc1 [drawing 60] |  |  |  |  | 387 | 691 | 363 | 20881
22 | CCCCNC(=O)C1=CN(C(C)(C)C)CCC1(C)C [drawing 61] |  |  |  |  | 312 | 799 | 288 | 22531
